Reference: ChEMBL document CHEMBL4507276 (2021)

Columns and labels:
[1] = target: Alpha-2B adrenergic receptor (Homo sapiens) (UniProt P18089); settings: Compound concentration 10.0 uM
[2] = target: T1, Alpha-1A adrenergic receptor (Homo sapiens) (UniProt P35348); experiment: ALPHA1AH_ANTAG Cerep selectivity data (BI); settings: filed as antagonist, Compound concentration 20.0 uM
T1 sequence (whole entry): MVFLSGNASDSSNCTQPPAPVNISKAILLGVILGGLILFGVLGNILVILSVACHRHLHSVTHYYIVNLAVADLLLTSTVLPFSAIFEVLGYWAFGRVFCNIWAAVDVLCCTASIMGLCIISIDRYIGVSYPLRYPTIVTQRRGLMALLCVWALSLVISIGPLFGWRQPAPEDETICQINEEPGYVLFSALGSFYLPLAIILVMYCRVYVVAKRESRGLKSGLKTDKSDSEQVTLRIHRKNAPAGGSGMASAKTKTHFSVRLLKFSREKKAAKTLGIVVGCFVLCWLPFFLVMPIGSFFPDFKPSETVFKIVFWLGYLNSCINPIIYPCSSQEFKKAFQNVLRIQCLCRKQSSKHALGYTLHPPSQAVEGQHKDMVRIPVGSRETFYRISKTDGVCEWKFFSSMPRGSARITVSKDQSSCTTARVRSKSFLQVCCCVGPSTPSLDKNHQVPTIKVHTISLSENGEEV

[3] = target: Voltage-dependent N-type calcium channel subunit alpha-1B (Rattus norvegicus) (UniProt Q02294); experiment: CA+/N/R Cerep selectivity data (BI); settings: Compound concentration 20.0 uM
Sequence of Voltage-dependent N-type calcium channel subunit alpha-1B (Rattus norvegicus) (Q02294 whole entry, looked up): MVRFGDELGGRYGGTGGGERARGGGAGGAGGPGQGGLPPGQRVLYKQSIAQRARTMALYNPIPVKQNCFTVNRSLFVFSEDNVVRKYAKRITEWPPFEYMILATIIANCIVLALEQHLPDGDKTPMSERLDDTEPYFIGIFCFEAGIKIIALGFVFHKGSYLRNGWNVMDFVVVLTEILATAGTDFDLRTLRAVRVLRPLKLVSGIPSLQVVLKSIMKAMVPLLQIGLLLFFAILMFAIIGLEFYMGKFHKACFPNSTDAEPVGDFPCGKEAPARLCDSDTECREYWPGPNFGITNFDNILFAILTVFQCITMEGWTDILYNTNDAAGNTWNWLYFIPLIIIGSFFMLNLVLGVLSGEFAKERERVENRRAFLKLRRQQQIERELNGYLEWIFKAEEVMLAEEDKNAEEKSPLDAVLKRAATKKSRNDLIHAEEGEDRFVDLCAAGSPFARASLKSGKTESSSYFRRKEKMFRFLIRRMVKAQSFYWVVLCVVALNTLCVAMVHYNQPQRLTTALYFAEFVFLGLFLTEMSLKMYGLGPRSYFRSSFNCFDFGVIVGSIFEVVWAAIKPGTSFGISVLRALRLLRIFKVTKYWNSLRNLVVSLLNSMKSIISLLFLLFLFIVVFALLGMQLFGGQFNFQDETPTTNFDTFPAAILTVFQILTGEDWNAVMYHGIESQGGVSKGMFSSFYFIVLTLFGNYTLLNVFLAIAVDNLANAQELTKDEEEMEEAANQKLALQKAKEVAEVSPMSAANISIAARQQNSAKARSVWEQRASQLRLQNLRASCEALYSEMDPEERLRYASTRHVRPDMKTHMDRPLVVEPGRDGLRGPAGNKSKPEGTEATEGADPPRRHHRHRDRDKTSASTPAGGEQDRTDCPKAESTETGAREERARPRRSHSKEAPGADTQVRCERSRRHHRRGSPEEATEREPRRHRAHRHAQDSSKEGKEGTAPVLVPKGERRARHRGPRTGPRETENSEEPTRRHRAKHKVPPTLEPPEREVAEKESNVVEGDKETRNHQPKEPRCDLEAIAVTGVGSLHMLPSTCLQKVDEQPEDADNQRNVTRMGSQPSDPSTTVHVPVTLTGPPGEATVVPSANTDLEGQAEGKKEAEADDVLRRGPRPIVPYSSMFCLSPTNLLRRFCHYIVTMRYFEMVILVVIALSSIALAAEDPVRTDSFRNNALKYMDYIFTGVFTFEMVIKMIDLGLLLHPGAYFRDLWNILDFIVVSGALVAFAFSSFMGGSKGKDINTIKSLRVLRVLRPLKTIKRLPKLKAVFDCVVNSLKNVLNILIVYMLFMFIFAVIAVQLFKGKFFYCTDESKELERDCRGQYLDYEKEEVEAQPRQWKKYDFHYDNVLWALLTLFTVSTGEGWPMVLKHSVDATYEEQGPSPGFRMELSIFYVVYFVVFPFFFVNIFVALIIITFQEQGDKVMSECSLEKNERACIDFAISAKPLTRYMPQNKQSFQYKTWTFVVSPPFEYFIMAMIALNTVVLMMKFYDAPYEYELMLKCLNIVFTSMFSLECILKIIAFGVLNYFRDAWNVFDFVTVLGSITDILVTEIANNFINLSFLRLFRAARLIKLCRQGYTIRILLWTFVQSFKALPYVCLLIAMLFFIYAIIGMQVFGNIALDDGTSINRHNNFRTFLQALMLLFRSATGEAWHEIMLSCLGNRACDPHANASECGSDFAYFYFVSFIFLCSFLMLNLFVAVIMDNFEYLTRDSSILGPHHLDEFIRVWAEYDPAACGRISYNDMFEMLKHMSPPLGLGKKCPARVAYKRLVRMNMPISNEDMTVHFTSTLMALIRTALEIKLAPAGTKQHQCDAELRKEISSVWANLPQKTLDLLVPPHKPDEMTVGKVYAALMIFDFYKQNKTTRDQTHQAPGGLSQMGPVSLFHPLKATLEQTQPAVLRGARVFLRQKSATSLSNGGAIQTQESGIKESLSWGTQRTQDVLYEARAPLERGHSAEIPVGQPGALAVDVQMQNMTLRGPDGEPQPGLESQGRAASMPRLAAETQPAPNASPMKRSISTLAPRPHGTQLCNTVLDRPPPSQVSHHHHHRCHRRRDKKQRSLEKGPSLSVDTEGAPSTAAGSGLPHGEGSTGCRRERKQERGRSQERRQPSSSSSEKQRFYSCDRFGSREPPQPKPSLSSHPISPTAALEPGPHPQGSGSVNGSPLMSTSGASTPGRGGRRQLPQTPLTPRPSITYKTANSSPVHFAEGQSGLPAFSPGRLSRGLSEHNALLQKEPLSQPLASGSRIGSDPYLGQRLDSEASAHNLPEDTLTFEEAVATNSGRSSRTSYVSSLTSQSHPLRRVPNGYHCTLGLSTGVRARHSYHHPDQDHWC

[4] = target: Substance-P receptor (Homo sapiens) (UniProt P25103); experiment: NK1/HUM Cerep selectivity data (BI); settings: Compound concentration 20.0 uM
[5] = target: Histamine H2 receptor (Homo sapiens) (UniProt P25021); experiment: H2/H Eurofins-Panlabs selectivity data (BI); settings: Compound concentration 10.0 uM
[6] = target: Melatonin receptor type 1A (Homo sapiens) (UniProt P48039); experiment: MT1/H Eurofins-Panlabs selectivity data (BI); settings: Compound concentration 10.0 uM
[7] = target: Sigma non-opioid intracellular receptor 1 (Homo sapiens) (UniProt Q99720); experiment: SIGMA1/HU Eurofins-Panlabs selectivity data (BI); settings: Compound concentration 10.0 uM
Sequence of Sigma non-opioid intracellular receptor 1 (Homo sapiens) (Q99720 whole entry): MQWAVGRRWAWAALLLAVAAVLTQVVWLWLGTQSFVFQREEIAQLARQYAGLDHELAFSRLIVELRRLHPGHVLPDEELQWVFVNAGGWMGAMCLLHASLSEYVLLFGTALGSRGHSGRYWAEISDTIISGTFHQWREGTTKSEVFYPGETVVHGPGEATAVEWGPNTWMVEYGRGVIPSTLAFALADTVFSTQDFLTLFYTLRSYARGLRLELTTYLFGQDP

[8] = test system: Tyrosine-protein kinase ABL1 (Homo sapiens), P00519 [G250E]; experiment: ABL1 G250E Invitrogen selectivity data (BI); settings: Compound concentration 3.0 uM
[9] = target: Activin receptor type-2B (Homo sapiens) (UniProt Q13705); experiment: ACVR2B Invitrogen selectivity data (BI); settings: Compound concentration 3.0 uM
[10] = target: Cyclin-dependent kinase 7 (Homo sapiens) (UniProt P50613); experiment: CDK7CYCLIN Invitrogen selectivity data (BI); settings: Compound concentration 3.0 uM
[11] = target: Casein kinase I isoform gamma-3 (Homo sapiens) (UniProt Q9Y6M4); experiment: CSNK1G3 Invitrogen selectivity data (BI); settings: Compound concentration 3.0 uM
[12] = test system: Epidermal growth factor receptor (Homo sapiens), P00533 [L861Q]; experiment: EGFR L861Q Invitrogen selectivity data (BI); settings: Compound concentration 3.0 uM
[13] = target: Ephrin type-A receptor 4 (Homo sapiens) (UniProt P54764); experiment: EPHA4 Invitrogen selectivity data (BI); settings: Compound concentration 3.0 uM
[14] = target: Ephrin type-A receptor 7 (Homo sapiens) (UniProt Q15375); experiment: EPHA7 Invitrogen selectivity data (BI); settings: Compound concentration 3.0 uM
[15] = target: T2, Dual specificity mitogen-activated protein kinase kinase 6 (Homo sapiens) (UniProt P52564); experiment: MAP2K6 Invitrogen selectivity data (BI); settings: Compound concentration 3.0 uM
T2 sequence (whole entry): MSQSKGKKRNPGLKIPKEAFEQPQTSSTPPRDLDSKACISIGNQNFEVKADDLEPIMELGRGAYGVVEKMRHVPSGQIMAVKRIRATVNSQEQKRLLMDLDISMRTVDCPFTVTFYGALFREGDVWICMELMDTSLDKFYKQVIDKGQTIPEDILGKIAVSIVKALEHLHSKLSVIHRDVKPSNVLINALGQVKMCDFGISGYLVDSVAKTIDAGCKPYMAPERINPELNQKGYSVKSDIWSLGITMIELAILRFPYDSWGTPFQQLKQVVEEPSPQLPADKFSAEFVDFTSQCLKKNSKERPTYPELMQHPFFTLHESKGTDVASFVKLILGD

[16] = target: Mitogen-activated protein kinase kinase kinase 10 (Homo sapiens) (UniProt Q02779); experiment: MAP3K10 Invitrogen selectivity data (BI); settings: Compound concentration 3.0 uM
Sequence of Mitogen-activated protein kinase kinase kinase 10 (Homo sapiens) (Q02779 whole entry, looked up): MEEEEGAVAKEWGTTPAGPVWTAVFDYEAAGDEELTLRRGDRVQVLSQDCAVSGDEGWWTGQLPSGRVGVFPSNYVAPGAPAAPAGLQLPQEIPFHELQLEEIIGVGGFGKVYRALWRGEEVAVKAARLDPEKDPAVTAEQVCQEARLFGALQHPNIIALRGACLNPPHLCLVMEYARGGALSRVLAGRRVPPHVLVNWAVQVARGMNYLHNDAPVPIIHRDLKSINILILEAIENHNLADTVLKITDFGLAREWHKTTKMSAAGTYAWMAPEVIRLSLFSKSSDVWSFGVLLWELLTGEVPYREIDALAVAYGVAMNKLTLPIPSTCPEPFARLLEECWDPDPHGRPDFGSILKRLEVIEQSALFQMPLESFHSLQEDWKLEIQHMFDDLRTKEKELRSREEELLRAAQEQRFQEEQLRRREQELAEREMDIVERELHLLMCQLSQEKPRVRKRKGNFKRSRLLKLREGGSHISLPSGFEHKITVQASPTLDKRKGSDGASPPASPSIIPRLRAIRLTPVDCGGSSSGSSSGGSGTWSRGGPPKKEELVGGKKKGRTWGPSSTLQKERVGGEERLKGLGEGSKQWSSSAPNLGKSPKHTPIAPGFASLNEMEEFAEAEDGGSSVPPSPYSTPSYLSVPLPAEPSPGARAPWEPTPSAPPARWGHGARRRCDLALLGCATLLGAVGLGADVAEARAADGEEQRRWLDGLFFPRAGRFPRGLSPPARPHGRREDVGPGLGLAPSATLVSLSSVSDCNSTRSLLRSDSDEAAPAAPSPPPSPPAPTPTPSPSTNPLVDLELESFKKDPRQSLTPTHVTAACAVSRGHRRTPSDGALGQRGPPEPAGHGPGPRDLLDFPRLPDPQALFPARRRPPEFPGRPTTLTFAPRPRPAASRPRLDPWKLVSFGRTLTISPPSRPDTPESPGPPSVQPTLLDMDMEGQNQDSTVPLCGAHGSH

[17] = target: Mitogen-activated protein kinase kinase kinase kinase 4 (Homo sapiens) (UniProt O95819); experiment: MAP4K4 Invitrogen selectivity data (BI); settings: Compound concentration 3.0 uM
[18] = target: Mitogen-activated protein kinase 1 (Homo sapiens) (UniProt P28482); experiment: MAPK1 Invitrogen selectivity data (BI); settings: Compound concentration 3.0 uM
[19] = target: MAP kinase-activated protein kinase 2 (Homo sapiens) (UniProt P49137); experiment: MAPKAPK2 Invitrogen selectivity data (BI); settings: Compound concentration 3.0 uM
[20] = target: Serine/threonine-protein kinase Nek4 (Homo sapiens) (UniProt P51957); experiment: NEK4 Invitrogen selectivity data (BI); settings: Compound concentration 3.0 uM
[21] = target: Serine/threonine-protein kinase PAK 5 (Homo sapiens) (UniProt Q9P286); experiment: PAK7 Invitrogen selectivity data (BI); settings: Compound concentration 3.0 uM
[22] = target: Protein kinase C epsilon type (Homo sapiens) (UniProt Q02156); experiment: PRKCE Invitrogen selectivity data (BI); settings: Compound concentration 3.0 uM
Sequence of Protein kinase C epsilon type (Homo sapiens) (Q02156 whole entry): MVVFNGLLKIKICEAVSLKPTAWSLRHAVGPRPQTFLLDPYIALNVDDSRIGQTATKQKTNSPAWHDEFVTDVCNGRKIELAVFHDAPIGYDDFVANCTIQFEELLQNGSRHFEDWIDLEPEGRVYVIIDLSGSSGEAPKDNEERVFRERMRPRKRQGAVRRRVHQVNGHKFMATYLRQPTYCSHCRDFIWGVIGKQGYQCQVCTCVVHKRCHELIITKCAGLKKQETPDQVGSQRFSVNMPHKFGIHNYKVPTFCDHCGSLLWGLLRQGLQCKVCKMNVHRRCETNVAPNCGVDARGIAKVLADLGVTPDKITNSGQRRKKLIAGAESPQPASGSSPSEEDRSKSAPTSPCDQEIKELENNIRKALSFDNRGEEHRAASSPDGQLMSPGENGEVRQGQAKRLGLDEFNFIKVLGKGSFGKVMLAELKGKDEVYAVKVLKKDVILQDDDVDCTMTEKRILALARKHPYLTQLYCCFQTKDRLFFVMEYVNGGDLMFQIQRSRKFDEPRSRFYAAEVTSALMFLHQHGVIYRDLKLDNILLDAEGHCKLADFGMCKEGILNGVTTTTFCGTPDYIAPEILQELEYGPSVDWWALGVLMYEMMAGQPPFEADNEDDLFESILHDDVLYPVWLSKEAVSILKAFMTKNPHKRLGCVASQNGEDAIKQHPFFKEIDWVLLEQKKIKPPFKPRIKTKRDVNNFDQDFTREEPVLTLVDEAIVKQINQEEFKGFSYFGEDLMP

[23] = target: Ribosomal protein S6 kinase alpha-2 (Homo sapiens) (UniProt Q15349); experiment: RPS6KA2 Invitrogen selectivity data (BI); settings: Compound concentration 3.0 uM
[24] = target: Sphingosine kinase 1 (Homo sapiens) (UniProt Q9NYA1); experiment: SPHK1 Invitrogen selectivity data (BI); settings: Compound concentration 3.0 uM
Sequence of Sphingosine kinase 1 (Homo sapiens) (Q9NYA1 whole entry): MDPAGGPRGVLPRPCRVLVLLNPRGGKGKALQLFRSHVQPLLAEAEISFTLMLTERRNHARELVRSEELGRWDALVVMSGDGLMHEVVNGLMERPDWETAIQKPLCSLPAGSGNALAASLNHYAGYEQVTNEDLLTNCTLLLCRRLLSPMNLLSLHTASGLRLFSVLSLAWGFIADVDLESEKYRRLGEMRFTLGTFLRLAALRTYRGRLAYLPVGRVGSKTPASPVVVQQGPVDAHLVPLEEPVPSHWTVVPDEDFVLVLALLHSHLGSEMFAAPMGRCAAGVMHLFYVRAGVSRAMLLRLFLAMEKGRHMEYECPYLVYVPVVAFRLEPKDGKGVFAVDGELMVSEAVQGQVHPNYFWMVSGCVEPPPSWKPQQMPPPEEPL

[25] = target: SRSF protein kinase 2 (Homo sapiens) (UniProt P78362); experiment: SRPK2 Invitrogen selectivity data (BI); settings: Compound concentration 3.0 uM
[26] = target: Serine/threonine-protein kinase 33 (Homo sapiens) (UniProt Q9BYT3); experiment: STK33 Invitrogen selectivity data (BI); settings: Compound concentration 3.0 uM
[27] = target: T3, Tyrosine-protein kinase ZAP-70 (Homo sapiens) (UniProt P43403); experiment: ZAP70 Invitrogen selectivity data (BI); settings: Compound concentration 3.0 uM
T3 sequence (whole entry): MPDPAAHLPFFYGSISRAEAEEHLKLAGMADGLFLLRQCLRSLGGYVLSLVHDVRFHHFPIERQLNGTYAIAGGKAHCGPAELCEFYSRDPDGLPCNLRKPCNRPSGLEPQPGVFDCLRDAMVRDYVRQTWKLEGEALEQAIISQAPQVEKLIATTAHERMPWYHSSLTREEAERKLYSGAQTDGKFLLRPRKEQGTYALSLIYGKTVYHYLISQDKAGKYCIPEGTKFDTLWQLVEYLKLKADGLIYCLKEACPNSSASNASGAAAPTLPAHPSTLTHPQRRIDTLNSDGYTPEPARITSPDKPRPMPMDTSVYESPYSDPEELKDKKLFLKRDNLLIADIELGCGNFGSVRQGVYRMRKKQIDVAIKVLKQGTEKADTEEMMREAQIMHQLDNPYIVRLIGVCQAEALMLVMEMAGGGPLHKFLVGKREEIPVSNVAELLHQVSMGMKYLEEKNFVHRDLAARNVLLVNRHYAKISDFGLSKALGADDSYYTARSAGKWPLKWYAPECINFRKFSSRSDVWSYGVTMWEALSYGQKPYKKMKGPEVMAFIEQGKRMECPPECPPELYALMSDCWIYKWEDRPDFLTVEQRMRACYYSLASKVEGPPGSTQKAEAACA

Sequence of Alpha-2B adrenergic receptor (Homo sapiens) (P18089 whole entry): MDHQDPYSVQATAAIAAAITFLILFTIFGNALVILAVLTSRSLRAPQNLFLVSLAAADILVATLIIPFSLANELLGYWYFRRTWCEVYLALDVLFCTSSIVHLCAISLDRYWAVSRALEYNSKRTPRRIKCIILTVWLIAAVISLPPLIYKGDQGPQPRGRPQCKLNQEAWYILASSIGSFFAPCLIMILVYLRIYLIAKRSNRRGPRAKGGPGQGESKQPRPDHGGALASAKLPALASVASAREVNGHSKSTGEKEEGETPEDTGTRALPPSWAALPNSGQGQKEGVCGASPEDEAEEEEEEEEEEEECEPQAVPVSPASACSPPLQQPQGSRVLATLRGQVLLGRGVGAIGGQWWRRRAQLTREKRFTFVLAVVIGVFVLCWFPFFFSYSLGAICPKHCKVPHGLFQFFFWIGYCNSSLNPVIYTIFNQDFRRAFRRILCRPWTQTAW

CN(C)C(=O)Cn1cc(-c2nc(C3(c4ccc(-c5cnc(N)nc5)cc4)CC3)no2)cn1 [BI 0153]
inactive: inhibition [1] -3.57%

CN(C)C(=O)Cn1cc(-c2nc([C@@](C)(c3ccc(-c4cnc(N)nc4)cc3)C3CC3)no2)cn1 [BI 665915]
inactive: residual activity [2] 99% | residual activity [3] 96% | residual activity [4] 95% | residual activity [5] 98% | residual activity [6] 96% | residual activity [7] 108% | residual activity [8] 80% | residual activity [9] 97% | residual activity [10] 100% | residual activity [11] 99% | residual activity [12] 98% | residual activity [13] 95% | residual activity [14] 78% | residual activity [15] 103% | residual activity [16] 88% | residual activity [17] 96.5% | residual activity [18] 100% | residual activity [19] 96.5% | residual activity [20] 97% | residual activity [21] 97% | residual activity [22] 86.5% | residual activity [23] 100% | residual activity [24] 95.5% | residual activity [25] 98% | residual activity [26] 101% | residual activity [27] 96%
